Consider 14 compounds from ChEMBL document CHEMBL3045474, “Natural products-based insecticidal agents 6. Design, semisynthesis, and insecticidal activity of novel monomethyl phthalate derivatives of podophyllotoxin against Mythimna separata Walker in vivo” (2010).

Test [1] relates to Mythimna separata. Kind of test: In vivo insecticidal activity against pre-third-instar larval stage of Mythimna separata (Oriental armyworm) in corn leaves assessed as induction of molting to abnormal pupae at 1 mg/ml treated for 3 secs before larval infestation on corn leaves by leaf-dipping method. The format is functional, organism-based.
Test [2] relates to Mythimna separata. Put plainly: In vivo insecticidal activity against pre-third-instar larval stage of Mythimna separata (Oriental armyworm) in corn leaves assessed as inhibition of adult emergence at 1 mg/ml treated for 3 secs before larval infestation on corn leaves by leaf-dipping method. The format is functional, organism-based.
In test [3] the test system is Mythimna separata. Kind of test: In vivo insecticidal activity against pre-third-instar larval stage of Mythimna separata (Oriental armyworm) in corn leaves assessed as inhibition of larval pupation at 1 mg/ml treated for 3 secs before larval infestation on corn leaves by leaf-dipping method. The format is functional, organism-based.
The test system of test [4] is Mythimna separata. Kind of test: In vivo insecticidal activity against pre-third-instar larval stage of Mythimna separata (Oriental armyworm) in corn leaves assessed as induction of loss of body liquid at 1 mg/ml treated for 3 secs before larval infestation on corn leaves measured after 48 hr by leaf-dipping method. The format is functional, organism-based.
The test system of test [5] is Mythimna separata. Put plainly: In vivo insecticidal activity against pre-third-instar larval stage of Mythimna separata (Oriental armyworm) in corn leaves assessed as induction of larval immobility at 1 mg/ml treated for 3 secs before larval infestation on corn leaves measured after 48 hr by leaf-dipping method. The format is functional, organism-based.
The test system of test [6] is Mythimna separata. Put plainly: In vivo insecticidal activity against pre-third-instar larval stage of Mythimna separata (Oriental armyworm) in corn leaves assessed as reduction in larval movement at 1 mg/ml treated for 3 secs before larval infestation on corn leaves measured after 24 hr by leaf-dipping method. The format is functional, organism-based.
The test system of test [7] is Mythimna separata. Put plainly: In vivo insecticidal activity against pre-third-instar larval stage of Mythimna separata (Oriental armyworm) in corn leaves assessed as corrected mortality rate at 1 mg/ml treated for 3 secs before larval infestation on corn leaves measured after 33 days by leaf-dipping method. The format is functional. As to conditions: 792 h.
Test [8] concerns Mythimna separata. Kind of test: In vivo insecticidal activity against pre-third-instar larval stage of Mythimna separata (Oriental armyworm) in corn leaves assessed as corrected mortality rate at 1 mg/ml treated for 3 secs before larval infestation on corn leaves measured after 20 days by leaf-dipping method. The conditions noted are these: 480 h. The format is functional.
Test [9] has as its system Mythimna separata. Put plainly: In vivo insecticidal activity against pre-third-instar larval stage of Mythimna separata (Oriental armyworm) in corn leaves assessed as corrected mortality rate at 1 mg/ml treated for 3 secs before larval infestation on corn leaves measured after 10 days by leaf-dipping method. The format is functional. As to conditions: 240 h.

Active and inactive are the calls of the source. The calls are words filed in the database; no cut-off is given here.

Regarding `COC(=O)c1ccccc1C(=O)O[C@H]1c2cc3c(cc2[C@@H](c2cc(OC)c(OC)c(OC)c2)[C@H]2C(=O)OC[C@@H]21)OCO3`, the result in [1], in [2], in test [3], in test [4], in test [5] and in test [6] was Active. The mortality (usually the share of the test organisms that died) at 1000 µg/mL in test [7] turned out to be 35.7%; in test [8], 24.1%; in test [9], 16.6%.

For `COC(=O)c1cccc([N+](=O)[O-])c1C(=O)O[C@@H]1c2cc3c(cc2[C@@H](c2cc(OC)c(OC)c(OC)c2)[C@H]2C(=O)OC[C@@H]21)OCO3`, the outcome in [1], in test [2], in [3], in [4], in test [5] and in test [6] was Active. The mortality at 1000 µg/mL in test [7] was 42.8%; in test [8], 17.2%; in [9] it was 10%.

For the compound `COC(=O)c1ccccc1C(=O)Oc1c(OC)cc([C@@H]2c3cc4c(cc3[C@@H](OC(=O)c3ccccc3C(=O)OC)[C@H]3COC(=O)[C@H]23)OCO4)cc1OC`, the result in test [1], in [2], in test [3], in test [4], in test [5] and in test [6] was Active. For the same compound, the results for the mortality at 1000 µg/mL in [7], in [8] and in [9] were 21.4%, 17.2% and 16.6%, respectively.

On to `COC(=O)c1ccccc1C(=O)O[C@H]1c2cc3c(cc2[C@@H](c2cc(OC)c(OC)c(OC)c2)[C@@H]2C(=O)OC[C@@H]21)OCO3`, for which the result in [1], in [2], in test [3], in [4], in test [5] and in test [6] was Active. For the same compound, the mortality at 1000 µg/mL in [7] came to 17.8%; in test [8], 10.3%; in [9] it was 10%.

Take `CC(=O)O[C@@H]1C[C@H](O)[C@@]23CO[C@@H](O)[C@]1(C)[C@@H]2C[C@@H](O)[C@]1(C)[C@@H]3C(=O)[C@H](OC(C)=O)[C@@]2(C)[C@H](c3ccoc3)C[C@H]3O[C@]321` [TOOSENDANIN]: the mortality at 1000 µg/mL in test [7] stood at 50%; in test [8], 31%; in test [9], 30%.

As to `COC(=O)c1cccc([N+](=O)[O-])c1C(=O)N[C@@H]1c2cc3c(cc2[C@@H](c2cc(OC)c(OC)c(OC)c2)[C@H]2C(=O)OC[C@@H]21)OCO3`, the result in test [1], in [2], in [3], in test [4], in [5] and in test [6] was Active. The mortality at 1000 µg/mL in [7] was 35.7%; in [8], 20.6%; in test [9] it was 10%.

As for `COC(=O)c1cccc([N+](=O)[O-])c1C(=O)O[C@H]1c2cc3c(cc2[C@@H](c2cc(OC)c(OC)c(OC)c2)[C@@H]2C(=O)OC[C@@H]21)OCO3`, the result in test [1], in test [2], in test [3], in test [4], in test [5] and in test [6] was Active. In addition, the mortality at 1000 µg/mL worked out at 14.2% in test [7], 13.7% in [8] and 13.3% in [9].

`COC(=O)c1cccc([N+](=O)[O-])c1C(=O)O[C@H]1c2cc3c(cc2[C@@H](c2cc(OC)c(OC)c(OC)c2)[C@H]2C(=O)OC[C@@H]21)OCO3`: the result in [1], in test [2], in test [3], in test [4], in test [5] and in test [6] was Active. Moreover, the results for the mortality at 1000 µg/mL in test [7], in [8] and in test [9] were 21.4%, 6.9% and 6.6%, respectively.

For `COC(=O)c1ccccc1C(=O)Oc1c(OC)cc([C@@H]2c3cc4c(cc3[C@@H](OC(=O)c3c(C(=O)OC)cccc3[N+](=O)[O-])[C@H]3COC(=O)[C@H]23)OCO4)cc1OC`, the outcome in [1], in [2], in test [3], in [4], in test [5] and in test [6] was Active. Besides, the figures for the mortality at 1000 µg/mL in test [7], in [8] and in [9] were 28.5%, 20.6% and 16.6%, respectively.

On to `COC(=O)c1ccccc1C(=O)N[C@@H]1c2cc3c(cc2[C@@H](c2cc(OC)c(OC)c(OC)c2)[C@H]2C(=O)OC[C@@H]21)OCO3`, for which the result in test [1], in test [2], in test [3], in test [4], in test [5] and in [6] was Active. In addition, the mortality at 1000 µg/mL in [7] amounted to 42.8%; in test [8], 10.3%; in [9], 6.6%.

As to `COC(=O)c1ccccc1C(=O)O[C@H]1c2cc3c(cc2[C@@H](c2cc(OC)c(OC)c(OC)c2)[C@@]2(Cl)C(=O)OC[C@H]12)OCO3`, the outcome in test [1], in [2], in [3], in test [4], in test [5] and in test [6] was Active. For the same compound, the mortality at 1000 µg/mL in [7] turned out to be 53.5%; in [8], 31%; in [9], 16.6%.

As to `COC(=O)c1ccccc1C(=O)O[C@@H]1c2cc3c(cc2[C@@H](c2cc(OC)c(OC)c(OC)c2)[C@H]2C(=O)OC[C@@H]21)OCO3`, the result in test [1], in [2], in test [3], in [4], in test [5] and in test [6] was Active. In addition, the mortality at 1000 µg/mL in test [7] is 38.5%; in test [8], 20.6%; in [9], 10%.

On to `COC(=O)c1cccc([N+](=O)[O-])c1C(=O)O[C@H]1c2cc3c(cc2[C@@H](c2cc(OC)c(OC)c(OC)c2)[C@@]2(Cl)C(=O)OC[C@H]12)OCO3`, for which the result in test [1], in [2], in [3], in test [4], in test [5] and in [6] was Active. In addition, the results for the mortality at 1000 µg/mL in test [7], in test [8] and in test [9] were 46.4%, 41.3% and 30%, respectively.

With `COc1cc([C@@H]2c3cc4c(cc3[C@H](O)[C@H]3COC(=O)[C@H]23)OCO4)cc(OC)c1OC` [PODOFILOX], the values for the mortality at 1000 µg/mL in test [7], in test [8] and in test [9] were 35.7%, 20.6% and 16.6%, respectively.
